Assay type in all cases: functional
One assay has as its system Pichia kudriavzevii. The experiment in a line: Antifungal activity against Candida krusei ATCC 6258 assessed as inhibition of fungal growth incubated for 72 hrs by CLSI based liquid medium microdilution method. For orientation: In broth dilution the organism is exposed to a series of concentrations in liquid medium.
For another assay, the system named is Candida tropicalis. The experiment in a line: Antifungal activity against Candida tropicalis ATCC 1369 assessed as inhibition of fungal growth incubated for 72 hrs by CLSI based liquid medium microdilution method.
In a further assay the test system is Aspergillus fumigatus. The experiment in a line: Antifungal activity against Aspergillus fumigatus KM8001 assessed as inhibition of fungal growth incubated for 72 hrs by CLSI based liquid medium microdilution method.
A further assay concerns Cryptococcus neoformans. The experiment in a line: Antifungal activity against Cryptococcus neoformans ZKCC 2209 assessed as inhibition of fungal growth incubated for 72 hrs by CLSI based liquid medium microdilution method.
The subject of the next assay is Candida albicans. The experiment in a line: Antifungal activity against Candida albicans ATCC SC5314 assessed as inhibition of fungal growth incubated for 72 hrs by CLSI based liquid medium microdilution method.

Converted amounts (≈) assume the structure as drawn.

A word on the MIC50: it is the lowest concentration that inhibits either 50% of growth or 50% of the strains tested, depending on the study. Turning to `O=C(NC1CCN(C(=O)c2ccccc2)CC1)c1nc(-n2ccnc2)c2ccccc2n1`, the MIC50 is 2 µg/mL (≈ 4.69 µM) in the assay with Pichia kudriavzevii; 1 µg/mL (≈ 2.34 µM) in the assay on Candida tropicalis; above 8 µg/mL in the assay on Aspergillus fumigatus; 2 µg/mL (≈ 4.69 µM) with Cryptococcus neoformans; 1 µg/mL (≈ 2.34 µM) in the assay on Candida albicans.
As for `CC(=O)c1ccc(NC(=O)c2nc(-n3cncn3)c3cc(Cl)ccc3n2)cc1`, the MIC50 with Pichia kudriavzevii was 1 µg/mL (≈ 2.55 µM); with Candida tropicalis, 0.5 µg/mL (≈ 1.27 µM); in the assay on Aspergillus fumigatus, 4 µg/mL (≈ 10.2 µM); in the assay with Cryptococcus neoformans, 2 µg/mL (≈ 5.09 µM); in the assay on Candida albicans, 0.5 µg/mL (≈ 1.27 µM).
Regarding `COc1ccc(C(=O)N2CCC(NC(=O)c3nc(-n4cncn4)c4ccccc4n3)CC2)cc1`, the MIC50 in the assay on Pichia kudriavzevii was determined as 0.5 µg/mL (≈ 1.09 µM); in the assay on Candida tropicalis, 0.5 µg/mL (≈ 1.09 µM); in the assay on Aspergillus fumigatus it was 2 µg/mL (≈ 4.37 µM); in the assay on Cryptococcus neoformans, 1 µg/mL (≈ 2.19 µM); in the assay on Candida albicans, 0.5 µg/mL (≈ 1.09 µM).
As for `CS(=O)(=O)c1ccc(NC(=O)c2nc(-n3ccnc3)c3cc(Cl)ccc3n2)cc1`, the MIC50 worked out at 2 µg/mL (≈ 4.67 µM) with Pichia kudriavzevii; 2 µg/mL (≈ 4.67 µM) in the assay with Candida tropicalis; 4 µg/mL (≈ 9.35 µM) with Aspergillus fumigatus; 0.5 µg/mL (≈ 1.17 µM) in the assay with Cryptococcus neoformans; 1 µg/mL (≈ 2.34 µM) in the assay on Candida albicans.
On to `O=C(NCc1ccccc1)c1nc(-n2cncn2)c2cc(Cl)ccc2n1`, for which the MIC50 amounted to 0.5 µg/mL (≈ 1.37 µM) with Pichia kudriavzevii; 1 µg/mL (≈ 2.74 µM) in the assay with Candida tropicalis; 2 µg/mL (≈ 5.48 µM) in the assay with Aspergillus fumigatus; 1 µg/mL (≈ 2.74 µM) in the assay on Cryptococcus neoformans; 1 µg/mL (≈ 2.74 µM) in the assay on Candida albicans.
In the case of `CC(=O)c1ccc(NC(=O)c2nc(-n3ccnc3)c3cc(Cl)ccc3n2)cc1`, the MIC50 in the assay with Pichia kudriavzevii was 4 µg/mL (≈ 10.2 µM); with Candida tropicalis, 1 µg/mL (≈ 2.55 µM); in the assay on Aspergillus fumigatus, above 8 µg/mL; in the assay on Cryptococcus neoformans, 2 µg/mL (≈ 5.1 µM); with Candida albicans, 1 µg/mL (≈ 2.55 µM).
Consider `COc1ccc(C(=O)N2CCC(NC(=O)c3nc(-n4ccnc4)c4ccccc4n3)CC2)cc1`, for which the MIC50 in the assay on Pichia kudriavzevii worked out at 2 µg/mL (≈ 4.38 µM); in the assay with Candida tropicalis it was 1 µg/mL (≈ 2.19 µM); with Aspergillus fumigatus it was 4 µg/mL (≈ 8.76 µM); in the assay with Cryptococcus neoformans, 1 µg/mL (≈ 2.19 µM); with Candida albicans, 2 µg/mL (≈ 4.38 µM).
As to `O=C(NC1CCN(C(=O)c2ccccc2)CC1)c1nc(-n2cncn2)c2ccccc2n1`, the MIC50 in the assay with Pichia kudriavzevii was determined as 1 µg/mL (≈ 2.34 µM); in the assay on Candida tropicalis, 1 µg/mL (≈ 2.34 µM); with Aspergillus fumigatus it was 4 µg/mL (≈ 9.36 µM); in the assay on Cryptococcus neoformans, 2 µg/mL (≈ 4.68 µM); with Candida albicans, 1 µg/mL (≈ 2.34 µM).
For the compound `CS(=O)(=O)c1ccc(NC(=O)c2nc(-n3cncn3)c3cc(Cl)ccc3n2)cc1`, the MIC50 worked out at 1 µg/mL (≈ 2.33 µM) with Pichia kudriavzevii; 1 µg/mL (≈ 2.33 µM) in the assay with Candida tropicalis; 2 µg/mL (≈ 4.66 µM) in the assay on Aspergillus fumigatus; 0.5 µg/mL (≈ 1.17 µM) with Cryptococcus neoformans; 0.5 µg/mL (≈ 1.17 µM) in the assay with Candida albicans.
Turning to `O=C(NC1CCCc2ccccc21)c1nc(-n2ccnc2)c2cc(Cl)ccc2n1` (stereo not given), the MIC50 was 4 µg/mL (≈ 9.9 µM) with Pichia kudriavzevii; 4 µg/mL (≈ 9.9 µM) in the assay on Candida tropicalis; above 8 µg/mL in the assay with Aspergillus fumigatus; 2 µg/mL (≈ 4.95 µM) in the assay with Cryptococcus neoformans; above 8 µg/mL in the assay with Candida albicans.
As to `CS(=O)(=O)c1ccc(NC(=O)c2nc(-n3cncn3)c3ccccc3n2)cc1`, the MIC50 is 2 µg/mL (≈ 5.07 µM) in the assay with Pichia kudriavzevii; 2 µg/mL (≈ 5.07 µM) in the assay on Candida tropicalis; 4 µg/mL (≈ 10.1 µM) in the assay with Aspergillus fumigatus; 2 µg/mL (≈ 5.07 µM) in the assay with Cryptococcus neoformans; 1 µg/mL (≈ 2.54 µM) with Candida albicans.
`CS(=O)(=O)c1ccc(NC(=O)c2nc(-n3ccnc3)c3ccccc3n2)cc1`: the MIC50 is 4 µg/mL (≈ 10.2 µM) with Pichia kudriavzevii; 4 µg/mL (≈ 10.2 µM) in the assay with Candida tropicalis; above 8 µg/mL in the assay on Aspergillus fumigatus; 1 µg/mL (≈ 2.54 µM) in the assay on Cryptococcus neoformans; 2 µg/mL (≈ 5.08 µM) in the assay on Candida albicans.
In the case of `O=C(NCc1ccccc1)c1nc(-n2ccnc2)c2ccccc2n1`, the MIC50 in the assay with Pichia kudriavzevii was 1 µg/mL (≈ 3.04 µM); in the assay with Candida tropicalis, 2 µg/mL (≈ 6.07 µM); in the assay on Aspergillus fumigatus, above 8 µg/mL; in the assay on Cryptococcus neoformans, 4 µg/mL (≈ 12.1 µM); in the assay on Candida albicans, 2 µg/mL (≈ 6.07 µM).
For `CC(=O)c1ccc(NC(=O)c2nc(-n3cncn3)c3ccccc3n2)cc1`, the MIC50 in the assay with Pichia kudriavzevii was 1 µg/mL (≈ 2.79 µM); with Candida tropicalis, 0.5 µg/mL (≈ 1.4 µM); in the assay on Aspergillus fumigatus, 2 µg/mL (≈ 5.58 µM); in the assay on Cryptococcus neoformans it was 0.5 µg/mL (≈ 1.4 µM); in the assay with Candida albicans it was 0.5 µg/mL (≈ 1.4 µM).
Take `O=C(NCc1ccccc1)c1nc(-n2cncn2)c2ccccc2n1`: the MIC50 with Pichia kudriavzevii is 4 µg/mL (≈ 12.1 µM); with Candida tropicalis, 1 µg/mL (≈ 3.03 µM); in the assay with Aspergillus fumigatus it was above 8 µg/mL; with Cryptococcus neoformans it was 2 µg/mL (≈ 6.05 µM); in the assay on Candida albicans, 2 µg/mL (≈ 6.05 µM).
